The values below come from PubChem BioAssay (NCI).

Where “and” joins values, the source holds several entries; their conditions need not be identical. Equal entries are not always repeated.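 Test compounds were applied to cells in 96-well plates for 48 hours at 5 doses. GI50 marks 50% less growth. Definition used: TGI = concentration required for complete inhibition of growth.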

Holding throughout (assay): NCI tumour cell line growth inhibition, 48 h
Assay [1] relates to RPMI-8226 leukemia.
Assay [2] concerns HCC-2998 colon.
In assay [3] the test system is M14 melanoma.
The subject of assay [4] is MALME-3M melanoma.
The subject of assay [5] is HL-60(TB) leukemia.
Assay [6] concerns CCRF-CEM leukemia.
The test system of assay [7] is SK-MEL-2 melanoma.
Assay [8] concerns OVCAR-4 ovarian.
For assay [9], the system named is TK-10 renal.
Assay [10] concerns LOX IMVI melanoma.

As to `BrC1=CC=C2NCCCCCCN=C3C=CC(Br)=CC=C3NCCCCCCN=C2C=C1`, the TGI in [1], in assay [2], in assay [3], in assay [4], in [5] and in [6] was greater than 25.5 µM throughout. Also, the TGI in assay [7], in assay [8], in assay [9] and in [10] was greater than 25.5 µM throughout.
Consider `CC1(C)CC(=O)C(=[N+]=[N-])C(=O)C1`, for which the TGI in assay [1], in assay [2], in assay [3], in [4], in assay [5] and in assay [6] was greater than 100 µM throughout. Further, the TGI in assay [7], in assay [8], in [9] and in assay [10] was greater than 100 µM in each case.
For `NCCP(=O)(O)O`, the TGI in [1], in [2], in [3], in [4], in assay [5] and in assay [6] was greater than 100 µM throughout. Further, the TGI in assay [7], in assay [8], in assay [9] and in assay [10] was greater than 100 µM each time.
In the case of `c1cc[c]([Sn]([S]c2cccc3cccnc23)([S]c2cccc3cccnc23)[c]2ccccc2)cc1`, the GI50 is 0.158 µM in assay [1]; 0.17 µM in assay [2]; 0.188 µM in [3]; 0.168 µM in assay [4]; 0.172 µM in [5]; 0.0948 µM in [6]. Besides, the GI50 in [7] was 0.16 µM; in assay [8], 0.163 µM; in assay [9], 0.206 µM; in assay [10] it was 0.186 µM. Moreover, the TGI in assay [1] amounted to 0.465 µM; in assay [2], 0.352 µM; in [3], 0.393 µM; in assay [4], 0.547 µM; in assay [5] it was 0.563 µM; in assay [6], 0.429 µM. Besides, the TGI in assay [7] stood at 0.538 µM; in assay [8], 0.336 µM; in assay [9] it was 0.417 µM; in assay [10] it was 0.402 µM.
Turning to `CC(C(=O)c1ccc(Cl)cc1)C1OC(=O)C(Cl)=C1Cl` (stereo not drawn), the TGI in assay [1] was 70.8 µM; in assay [2], 63.5 µM; in assay [3], greater than 100 µM; in assay [4], 41.7 µM; in [5] it was 47.6 µM; in assay [6], 41.4 µM. Besides, the TGI in assay [7] was 48.9 µM; in [8], 64.6 µM; in assay [9] it was greater than 100 µM; in assay [10] it was 47.3 µM.
Turning to `NC(Cc1ccnnc1)C(=O)O` (stereo not drawn), the TGI in assay [1], in assay [2], in assay [3], in assay [4], in [5] and in assay [6] was greater than 100 µM in each case. Also, the TGI in assay [7], in [8], in [9] and in assay [10] was greater than 100 µM each time.
As for `Cc1cccc2c1O/C(=C\c1ccc([N+](=O)[O-])o1)C2=O`, the GI50 is 0.32 µM in [1]; 1.34 µM in assay [2]; 1.43 µM in assay [3]; 0.971 µM in assay [4]; 1.58 µM in [5]; 0.285 µM in assay [6]. The GI50 was 1.76 µM in assay [7], 2.06 µM in assay [8], 2.3 µM in [9] and 1.23 µM in assay [10]. Further, the TGI in assay [1] was found to be 1.8 µM; in assay [2], 3.91 µM; in [3], 3.21 µM; in assay [4], 2.66 µM; in [5], 4.35 µM; in [6], 1.05 µM. Also, the TGI in assay [7] stood at 3.52 µM; in assay [8], 8.06 µM; in [9], 5.61 µM; in assay [10], 2.69 µM.
Turning to `N#C/C(N)=C(\C#N)N=Cc1csc2ccccc12`, the GI50 in [1] was greater than 100 µM; in assay [2] it was 90.4 µM; in assay [3], 46.8 µM; in assay [4], 50.9 µM; in assay [5], greater than 100 µM; in assay [6] it was greater than 100 µM. In addition, the GI50 in assay [7] was greater than 100 µM; in [8], 43.5 µM; in [9] it was 17.6 µM; in assay [10], 26.3 µM. The TGI in [1], in [2], in assay [3], in assay [4], in [5] and in assay [6] was greater than 100 µM each time. Besides, the TGI in assay [7] was greater than 100 µM; in [8] it was greater than 100 µM; in [9], 45 µM; in [10], 66.3 µM.
In the case of `Cc1cc(C)cc(Nc2ccc([N+](=O)[O-])c(NCCN3CCOCC3)n2)c1`, the GI50 in assay [1] is 0.00455 µM and 0.0366 µM; in assay [2] it was 0.00435 µM and 0.0287 µM; in [3] it was 0.00162 µM; in [4], 16 µM; in assay [5], 0.00261 µM; in assay [6] it was 0.00392 µM and 0.0331 µM. Besides, the GI50 in assay [8] was 0.002 µM; in assay [9] it was 13 µM; in assay [10], 0.0159 µM and 0.0114 µM. Besides, the TGI in [1] was greater than 100 µM; in assay [2] it was greater than 100 µM; in assay [4], greater than 100 µM; in assay [5], 0.00926 µM; in [6] it was greater than 100 µM; in [7], greater than 100 µM. The TGI in [8], in assay [9] and in [10] was greater than 100 µM each time.
For `C1=C(c2ccccc2)C(c2ccc(OCCN3CCCCC3)cc2)Oc2ccccc21` (stereo not drawn), the GI50 in [1] is 2.25 µM; in assay [2], 1.72 µM; in assay [3], 1.73 µM; in [4], 1.73 µM; in [5] it was 1.73 µM; in assay [6] it was 2.46 µM. Further, the GI50 was 2.03 µM in assay [7], 2.37 µM in assay [8], 1.69 µM in [9] and 1.65 µM in [10]. For the same molecule, the TGI is 5.02 µM in assay [1]; 3.38 µM in [2]; 3.38 µM in assay [3]; 3.48 µM in [4]; 3.76 µM in assay [5]; 6.46 µM in [6]. Further, the TGI stood at 4.33 µM in [7], 7.09 µM in [8], 3.4 µM in [9] and 3.01 µM in assay [10].
